Experiments:
Type in all cases: cell-based
K2P4.1(TRAAK) = target: T1, K2P4.1(TRAAK) (Mus musculus, UniProt O88454); test: TEVC of K2P4.1(TRAAK) in Xenopus oocytes
T1 construct: expressed in transfected cells; host or cells: Xenopus laevis oocytes injected with mRNA made from pGEMHE/pMO
T1 sequence (O88454 1-398): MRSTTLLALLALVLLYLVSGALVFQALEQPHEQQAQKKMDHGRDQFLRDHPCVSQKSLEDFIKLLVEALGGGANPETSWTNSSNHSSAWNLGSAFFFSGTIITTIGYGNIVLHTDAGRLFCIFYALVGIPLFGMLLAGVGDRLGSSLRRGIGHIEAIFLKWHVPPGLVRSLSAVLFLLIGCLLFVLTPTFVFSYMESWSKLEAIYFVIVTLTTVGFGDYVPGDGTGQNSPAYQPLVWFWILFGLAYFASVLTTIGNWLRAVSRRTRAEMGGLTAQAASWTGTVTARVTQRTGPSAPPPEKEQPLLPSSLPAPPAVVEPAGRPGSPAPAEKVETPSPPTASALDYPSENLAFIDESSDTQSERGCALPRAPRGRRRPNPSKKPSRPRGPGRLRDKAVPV
Text: Constructs for murine K2P channels, including K2P2.1(TREK-1) (Gene ID 16526), K2P10.1(TREK-2) (Gene ID 72258), K2P4.1(TRAAK) (Gene ID 16528), K2P5.1(TASK-2) (Gene ID 16529), K2P3.1(TASK-1) (Gene ID 16527), K2P9.1(TASK-3) (Gene ID 223604), and K2P18.1(TRESK) (Gene ID 332396) in pGEMHE/pMO, were used for Xenopus oocyte experiments as previously described.[10],[26] Murine K2P2.1(TREK-1) (Gene ID 16526) was expressed in HEK-293 cells using a pIRES-EGFP construct as previously described.[26] Murine K2P13.1(THIK-1) (Gene ID 217826) and K2P1.1(TWIK-1) (Gene ID 16525) were cloned into pGEMHE/pMO for use in Xenopus oocytes. Chimeras were designed using EMBOSS Needle pairwise sequence alignment tool[58] to match homologous helices in K2P2.1(TREK-1) and K2P4.1(TRAAK) and were assembled using the Gibson assembly method.[59] Chimera boundaries are Thr152 (TREK-1/AAK M2-C), Trp199 (TREK-1/AAK M3-C), Y272 (TREK-1/AAK M4-C), Thr114 (TRAAK/EK-1 M2-C), Trp161 (TRAAK/EK-1 M3-C), and Tyr234 K2P4.1(TRAAK). All sequences were verified using DNA sequencing.
Xenopus laevis oocytes were harvested in accordance with UCSF IACUC protocol AN129690 and digested in calcium-free ND-96 (96 mM NaCl, 2 mM KCl, 3.8 mM MgCl2) immediately following harvest, as previously described.[6],[10] Digested oocytes were maintained in standard ND96 (96 mM NaCl, 2 mM KCl, 1.8 mM CaCl2, 2 mM MgCl2) with antibiotics (100 units mL^–1 penicillin, 100 μg mL^–1 streptomycin, 50 μg mL^–1 gentimycin). Defolliculated stage V–VI oocytes were injected with 0.2–6.0 ng of mRNA in 50 nL, and currents were recorded 24–48 h after injection. mRNA was synthesized from plasmid DNA using mMessage mMachine Kit (T7 promoter, Ambion, Life Technologies) and purified using RNEasy Kit (Qiagen). Injected oocytes were impaled with two standard microelectrodes (0.2–1.0 MΩ) filled with 3 M KCl and subjected to constant perfusion of standard ND96 during recording. Currents were amplified using the GeneClamp 500B (MDS Analytical Technologies) amplifier controlled by the pClamp software (Molecular Devices). Data were digitized at 1 kHz using Digidata 1332A (MDS Analytical Technologies). For all experiments with small molecules, basal currents were evoked using 1 s long ramps from −150 to +50 mV under constant perfusion of ND96. Once stabilized basal currents were recorded, compounds were perfused at various concentrations in standard ND96 and currents were allowed to increase to stabilization before recording final current. Fold activation upon compound application is expressed as I/I0 (0 mV), derived from the current at 0 mV in the presence of compound divided by the basal current at 0 mV in standard ND96 without compound. Data were analyzed and plotted using Graphpad Prism Version 5 (GraphPad Software, San Diego California USA, www.graphpad.com). […] In the case of BL-1249-acid EC50 estimation, upper bound of I/I0 was set to 20 to account for the strong stimulation of BL-1249-acid.

K2P2.1(TREK-1)GGG = target: T2, K2P2.1(TREK-1)GGG (Mus musculus, UniProt P97438, D309G/I307G); test: TEVC of triple-glycine mutant uncoupling the C-terminal tail; conditions: Xenopus oocytes
T2 construct: expressed in transfected cells; host or cells: Xenopus laevis oocytes, mRNA injected
T2 sequence (P97438 1-411 isoform P97438-2 I292G/D294G): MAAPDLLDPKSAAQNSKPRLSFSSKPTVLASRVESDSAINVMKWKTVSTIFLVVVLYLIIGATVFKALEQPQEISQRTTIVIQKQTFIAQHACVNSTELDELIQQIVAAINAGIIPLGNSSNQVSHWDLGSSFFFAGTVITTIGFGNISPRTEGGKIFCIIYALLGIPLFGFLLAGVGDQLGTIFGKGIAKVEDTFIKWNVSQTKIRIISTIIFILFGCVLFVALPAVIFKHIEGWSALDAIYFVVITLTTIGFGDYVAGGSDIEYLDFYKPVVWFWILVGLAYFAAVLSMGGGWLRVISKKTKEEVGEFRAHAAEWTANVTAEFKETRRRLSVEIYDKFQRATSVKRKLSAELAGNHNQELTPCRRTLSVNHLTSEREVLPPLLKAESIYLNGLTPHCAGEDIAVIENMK
Text: Gating stimuli detected by sensors in various parts of the channel converge on the K2P selectivity filter C-type gate.[6],[8],[10],[12],[35] Because the C-terminal tail is the sensor for K2P2.1(TREK-1) activation by both physiological[41]−[46] and chemical[45],[47] activators, we asked whether uncoupling the C-terminal tail from the channel using a triple-glycine mutant at the M4/C-terminal tail junction, K2P2.1(TREK-1)GGG,[41] impacted the BL-1249 response. […]
(§1) Xenopus laevis oocytes were harvested in accordance with UCSF IACUC protocol AN129690 and digested in calcium-free ND-96 (96 mM NaCl, 2 mM KCl, 3.8 mM MgCl2) immediately following harvest, as previously described.[6],[10] […] Defolliculated stage V–VI oocytes were injected with 0.2–6.0 ng of mRNA in 50 nL, and currents were recorded 24–48 h after injection. mRNA was synthesized from plasmid DNA using mMessage mMachine Kit (T7 promoter, Ambion, Life Technologies) and purified using RNEasy Kit (Qiagen). […] Once stabilized basal currents were recorded, compounds were perfused at various concentrations in standard ND96 and currents were allowed to increase to stabilization before recording final current. Fold activation upon compound application is expressed as I/I0 (0 mV), derived from the current at 0 mV in the presence of compound divided by the basal current at 0 mV in standard ND96 without compound. […]

K2P2.1(TREK-1) G137I = target: T3, K2P2.1(TREK-1) G137I (Mus musculus, UniProt P97438, G152I); test: TEVC of C-type gate activating mutant G137I; conditions: Xenopus oocytes
T3 construct: expressed in transfected cells; host or cells: Xenopus laevis oocytes, mRNA injected
T3 sequence (P97438 1-411 isoform P97438-2 G137I): as the sequence (P97438 1-411 isoform P97438-2 I292G/D294G) above, with G137I, G292I, G294D counted along it
Text: Diverse types of physical and chemical stimuli activate K2P2.1(TREK-1) by stabilizing the C-type gate and switching the channel into a “leak” mode that is characterized by a loss of outward rectification of the potassium current.[6],[8] Accordingly, we used inside-out patch clamp experiments of K2P2.1(TREK-1) expressed in HEK293 cells to test whether BL-1249 acts on the C-type gate. […] Together with previous single point concentration studies showing the insensitivity of K2P2.1(TREK-1) W275S in mammalian cells,[40] our data provide definitive evidence that BL-1249 activates K2P2.1(TREK-1) by stimulating the C-type gate. […]
as §1, with “current.” for “current. Fold activation upon compound application is expressed as I/I0 (0 mV), derived from the current at 0 mV in the presence of compound divided by the basal current at 0 mV in standard ND96 without compound.”

selectivity for K2P2.1(TREK-1) and K2P10.1(TREK-2) over K2P4.1(TRAAK) (EC50) (K2P4.1(TRAAK)): ~10 fold | K2P4.1(TRAAK) current response (K2P4.1(TRAAK); 10 μM): weakly stimulated | EC50 (K2P4.1(TRAAK); saturation not reached (solubility limit), fit with upper boundary of 15 (I/I0)): 48 ± 10 µM | EC50 (K2P2.1(TREK-1)GGG): 19 ± 1 µM | EC50 (K2P2.1(TREK-1) G137I): > 60 µM | sensitivity of K2P2.1(TREK-1) G137I to compound (K2P2.1(TREK-1) G137I): insensitive
SMILES: c1ccc(-c2nnn[nH]2)c(Nc2cccc3c2CCCC3)c1 [BL-1249, (5,6,7,8-tetrahydro-naphthalen-1-yl)-[2-(1H-tetrazol-5-yl)-phenyl]-amine]
